Source: the CheMixHub ionic liquid set
± gives the uncertainty stated by the source.

Experiment: xn = mol fraction of the nth substance listed

F[B-](F)(F)F.[Li+] + CC[n+]1ccn(C)c1.O=S(=O)([N-]S(=O)(=O)C(F)(F)F)C(F)(F)F
electrical conductivity [S/m], 101 kPa
Settings	x2 = 0.7088	x2 = 0.7396	x2 = 0.8073	x2 = 0.8856	x2 = 0.9623
288.15 K	–	0.238 ± 0.024	0.31 ± 0.031	0.431 ± 0.043	0.542 ± 0.054
298.15 K	0.295 ± 0.03	0.384 ± 0.039	0.489 ± 0.049	0.651 ± 0.065	0.807 ± 0.081
333.15 K	1.01 ± 0.1	1.18 ± 0.12	1.4 ± 0.14	1.72 ± 0.17	2.03 ± 0.2

CC(C)[C@H](N)C(=O)O + CC[n+]1ccn(C)c1.O=S(=O)([O-])O + O
viscosity [mPa·s], 100 kPa
Settings	x1 = 0.0003621, x2 = 0	x1 = 0.0007257, x2 = 0	x1 = 0.001091, x2 = 0	x1 = 0.001447, x2 = 0	x1 = 0.001793, x2 = 0	x1 = 0.002246, x2 = 0	x1 = 0.002701, x2 = 0
293.15 K	1.023 ± 0.033	1.043 ± 0.033	1.064 ± 0.033	1.084 ± 0.033	1.103 ± 0.033	1.128 ± 0.033	1.154 ± 0.033
298.15 K	0.899 ± 0.032	0.907 ± 0.032	0.916 ± 0.031	0.924 ± 0.031	0.931 ± 0.031	0.941 ± 0.031	0.952 ± 0.034
303.15 K	0.805 ± 0.031	0.812 ± 0.031	0.82 ± 0.031	0.827 ± 0.031	0.835 ± 0.031	0.844 ± 0.031	0.854 ± 0.031
308.15 K	0.727 ± 0.031	0.734 ± 0.031	0.742 ± 0.031	0.749 ± 0.031	0.756 ± 0.031	0.765 ± 0.031	0.774 ± 0.031
313.15 K	0.66 ± 0.031	0.666 ± 0.031	0.673 ± 0.031	0.679 ± 0.031	0.686 ± 0.031	0.694 ± 0.031	0.703 ± 0.031

COP(=O)([O-])OC.Cn1cc[n+](C)c1 + CCO
Settings	viscosity [mPa·s]
293.15 K, 100 kPa, x1 = 0.1005	3.24 ± 0.03
293.15 K, 100 kPa, x1 = 0.797	160.9 ± 5.1
293.15 K, 101 kPa, x2 = 0.5028	37.73 ± 0.83
293.15 K, 101 kPa, x2 = 0.6	24.37 ± 0.53
293.15 K, 101 kPa, x2 = 0.7999	6.29 ± 0.14
293.15 K, 101 kPa, x2 = 0.9	3.118 ± 0.067
298.15 K, 100 kPa, x1 = 0.7009	84.1 ± 1.3
298.15 K, 100 kPa, x1 = 0.8995	169.2 ± 5.6
298.15 K, 101 kPa, x1 = 0.2011	5.8 ± 0.2
298.15 K, 101 kPa, x1 = 0.5056	36.2 ± 1.5
298.15 K, 101 kPa, x1 = 0.8017	132.7 ± 6.7
298.15 K, 101 kPa, x2 = 0.4074	60.9 ± 1.3
298.15 K, 101 kPa, x2 = 0.6	21.18 ± 0.46
303.15 K, 100 kPa, x1 = 0.1005	2.62 ± 0.02
303.15 K, 100 kPa, x1 = 0.2006	5.25 ± 0.04
303.15 K, 100 kPa, x1 = 0.3005	9.92 ± 0.08
303.15 K, 101 kPa, x2 = 0.0999	173.7 ± 7.7
303.15 K, 101 kPa, x2 = 0.7999	5.01 ± 0.11
308.15 K, 100 kPa, x1 = 0.8995	94.2 ± 1.8
308.15 K, 100 kPa, x1 = 1	123.3 ± 3.2
308.15 K, 101 kPa, x2 = 0.5028	21.92 ± 0.48
308.15 K, 101 kPa, x2 = 0.6992	9.29 ± 0.2
313.15 K, 100 kPa, x1 = 0.4031	12.72 ± 0.1
313.15 K, 100 kPa, x1 = 0.797	54.3 ± 0.46
313.15 K, 101 kPa, x1 = 0.2011	4.2 ± 0.2
313.15 K, 101 kPa, x1 = 0.5056	21.2 ± 0.9
313.15 K, 101 kPa, x1 = 0.8017	60.8 ± 2.5
318.15 K, 100 kPa, x1 = 0.3005	7.04 ± 0.05
318.15 K, 100 kPa, x1 = 0.7009	33.29 ± 0.32
318.15 K, 100 kPa, x1 = 1	72.2 ± 1
318.15 K, 101 kPa, x2 = 0	92.8 ± 2.7
318.15 K, 101 kPa, x2 = 0.7999	3.702 ± 0.079
323.15 K, 100 kPa, x1 = 0.3005	6.41 ± 0.05
323.15 K, 100 kPa, x1 = 0.7009	27.5 ± 0.26
323.15 K, 100 kPa, x1 = 0.797	35.24 ± 0.36
323.15 K, 100 kPa, x1 = 0.8995	45.63 ± 0.5
323.15 K, 101 kPa, x2 = 0.0999	63.7 ± 1.5
323.15 K, 101 kPa, x2 = 0.9	1.819 ± 0.039
328.15 K, 100 kPa, x1 = 0.4996	12.51 ± 0.11
328.15 K, 100 kPa, x1 = 0.797	29.03 ± 0.3
333.15 K, 100 kPa, x1 = 0.1005	1.36 ± 0.01
333.15 K, 100 kPa, x1 = 0.3005	5.46 ± 0.04
333.15 K, 100 kPa, x1 = 0.7009	19.59 ± 0.19
333.15 K, 100 kPa, x1 = 0.8995	30.39 ± 0.34
333.15 K, 101 kPa, x1 = 0.2011	2.9 ± 0.1
333.15 K, 101 kPa, x1 = 0.5056	11.9 ± 0.5
333.15 K, 101 kPa, x1 = 0.8017	28 ± 1.2
338.15 K, 100 kPa, x1 = 0.4996	9.9 ± 0.08

CC[n+]1ccn(C)c1.O=C([O-])C(F)(F)F + OCCO
100 kPa
Settings	electrical conductivity, 298.15 K [S/m]	electrical conductivity, 313.15 K [S/m]	viscosity, 293.15 K [mPa·s]	viscosity, 298.15 K [mPa·s]	viscosity, 303.15 K [mPa·s]	viscosity, 313.15 K [mPa·s]
x1 = 0.001	0.0126 ± 0.0005	0.0215 ± 0.0009	20.8 ± 0.4	16.9 ± 0.4	13.8 ± 0.3	9.56 ± 0.2
x1 = 0.003	0.0278 ± 0.0011	0.0473 ± 0.0019	20.8 ± 0.4	16.8 ± 0.4	13.8 ± 0.3	9.54 ± 0.2
x1 = 0.009	0.065 ± 0.003	0.111 ± 0.005	20.6 ± 0.4	16.7 ± 0.4	13.7 ± 0.3	9.53 ± 0.2
x1 = 0.015	0.106 ± 0.004	0.18 ± 0.007	20.5 ± 0.4	16.6 ± 0.4	13.7 ± 0.3	9.49 ± 0.2
x2 = 0.489	1.36 ± 0.05	2.23 ± 0.09	20.6 ± 0.5	17.5 ± 0.4	14.9 ± 0.3	11.1 ± 0.3
x2 = 0.602	1.48 ± 0.06	2.25 ± 0.09	18.4 ± 0.4	15.5 ± 0.3	13.2 ± 0.3	9.84 ± 0.21
x2 = 0.71	1.33 ± 0.05	2.06 ± 0.08	17.2 ± 0.4	14.5 ± 0.3	12.3 ± 0.3	9.09 ± 0.19
x2 = 0.783	1.11 ± 0.05	1.72 ± 0.07	17.2 ± 0.4	14.3 ± 0.3	12.1 ± 0.3	8.83 ± 0.19
x2 = 0.843	0.89 ± 0.04	1.41 ± 0.06	17.6 ± 0.4	14.6 ± 0.3	12.2 ± 0.3	8.81 ± 0.19
x2 = 0.894	0.63 ± 0.03	1.03 ± 0.04	18.4 ± 0.4	15.1 ± 0.3	12.5 ± 0.3	8.95 ± 0.19
x2 = 0.934	0.415 ± 0.017	0.69 ± 0.03	19.3 ± 0.4	15.8 ± 0.3	13 ± 0.3	9.2 ± 0.19
x2 = 0.97	0.2 ± 0.008	0.339 ± 0.014	20.2 ± 0.4	16.4 ± 0.3	13.5 ± 0.3	9.4 ± 0.2
